Consider 29 compounds from patent US9145376B2, “Quinazolinone inhibitors of dynein” (The Rockefeller University, priority 2011, dated 2015).

Assay [1] relates to Hh pathway (Gli-responsive firefly luciferase reporter in Shh-LIGHT2 cells). Put plainly: Shh-LIGHT2 assay for Hh pathway activity. In kind it is cell-based. The following applies: 10% Shh-conditioned medium, 24 hours, firefly/Renilla luciferase ratio. The procedure:
Shh-N-conditioned medium was prepared as described by Chen et al., Proc. Natl. Acad. Sci. U.S.A. 99, 14071 (2002). Shh-LIGHT2 cells [J. Taipale et al., Nature 406, 1005 (2000)], an NIH-3T3-based cell line containing a stably integrated Gli-responsive firefly luciferase reporter and a constitutive thymidine kinase promoter-driven Renilla luciferase expression construct (pRLTK, Promega), were cultured in DMEM containing 10% calf serum. 100 U/mL penicillin, and 0.1 mg/mL streptomycin. The cells were seeded into 96-well plates at a density of 30,000 cells/well, and the following day they were treated with individual compounds or DMSO in DMEM containing 0.5% calf serum, 10% Shh-conditioned medium, and the antibiotics described above. After being cultured for another 24 hours, the cells were lysed and their firefly and Renilla luciferase activities were determined using, a dual luciferase reporter kit (Promega) and a microplate luminometer (Veritas). Average values representing the firefly luciferase/Renilla luciferase ratio from triplicate samples were used to construct dose response profiles for each compound. Dose-response data from three separate experiments were independently curve-fitted with a variable slope, sigmoidal dose-response algorithm using Prism software, and the resulting IC50 values were used to generate an average IC50 for each compound.

For assay [2], the system named is primary cilia of Shh-EGFP cells. Put plainly: Quantitative assessment of ciliogenesis (Arl13b staining, cilia size). Type of assay: cell-based. To be noted: 24 hours, read-out: Primary cilia size (percent of DMSO control at a 30 μM dose). As for the experimental part: Shh-EGFP cells [J. Hyman et al., Proc. Natl. Acad. Sci. U.S.A., (2009)], an NIH-3T3-based cell line containing a stably integrated Gli-responsive enhanced green fluorescent protein reporter, were maintained in DMEM containing 10% calf serum, 100 U/mL penicillin, and 0.1 mg/mL streptomycin. The cells were seeded into 24-well plates containing poly-D-lysine-coated 12-mm glass coverslips at a density of 30,000 cells/well and cultured for 36 hours. The cells were transferred into DMEM containing 0.5% calf serum, the antibiotics described above, and either individual compounds at a 30 μM concentration or 0.3% DMSO. After being cultured for another 24 hours, the cells were fixed in PBS containing 4% paraformaldehyde for 10 minutes at room temperature, washed 3×5 minutes with PBS, permeabilized with PBS containing 0.3% Triton X-100 for 5 minutes, and blocked overnight at 4° C. with PBS containing 5% normal goat serum, 0.1% Triton X-100, and 0.05% sodium azide. The coverslips were then incubated for 90 minutes at room temperature with blocking buffer containing rabbit polyclonal anti-Arl 13b antibody (1:3000 dilution), washed 4×5 minutes with PBS containing 0.1% Triton X-100, and incubated for 60 minutes with blocking buffer containing Alexa Fluor 488-conjugated goat polyclonal anti-rabbit IgG antibody (1:300 dilution; Invitrogen, A-11034). Following this secondary antibody incubation, nuclei were stained by incubating the cells 2×10 minutes with PBS containing 0.1% Triton X-100 and […] 4′,6-diamidino-2-phenylindole (DAPI) and washing them 2×5 minutes with PBS. The coverslips were subsequently mounted onto slides using Prolong Gold Antifade Reagent (Invitrogen) and imaged using an HC Plan Apochromat CS 20×/0.70 NA oil immersion objective on a Leica DMI6000B compound microscope equipped with a Photometric CoolSNAP HQ CCD camera and Metamorph software (Molecular Devices). Images of Arl13b staining in DMSO-treated cells were manually examined to establish a minimum threshold value for cilia staining intensity. ImageJ software was then used to define objects consisting of two or more adjacent pixels with a signal intensity equal to or greater than this threshold value, and the total object area within an individual image was used to estimate the total pixel area of primary cilia. Corresponding images of DAPI staining were processed in parallel using CellProfiler software to establish the number of nuclei per image. The average cilia size per cell within an individual image was then determined by dividing the total ciliary pixel area by the number of nuclei. Ten individual images, each containing approximately 150 cells. were used to quantify the average cilia size for each experimental condition.
Shh-EGFP cells, an NIH-3T3-based cell line containing a stably integrated Gli-responsive enhanced green fluorescent protein reporter, were maintained in DMEM containing 10% (v/v) calf serum, 100 U/mL penicillin, and 0.1 mg/mL streptomycin. The cells were seeded into 24-well plates containing poly-D-lysine-coated 12-mm glass coverslips at a density of 30,000 cells/well and cultured for 36 hours. The cells were transferred into DMEM containing 0.5% (v/v) calf serum, the antibiotics described above, and either individual dihydroquinazolinones at a 30 μM concentration or an equivalent amount of DMSO vehicle (0.3%, v/v). After being cultured for another 24 hours, the cells were fixed in PBS containing 4% (w/v) paraformaldehyde for 10 min at room temperature, washed 3×5 min with PBS, permeabilized with PBS containing 0.3% (v/v) Triton X-100 for 5 min, and blocked overnight at 4° C. with PBS containing 5% (v/v) normal goat serum, 0.1% (v/v) Triton X-100, and 0.05% (w/v) sodium azide. […]

Assay [3] concerns Gli3 processing in Shh-EGFP cells. Put plainly: Quantitative assessment of Hh ligand-dependent Gli3 processing. Type of assay: cell-based. To be noted: Shh-EGFP cells stimulated with Shh-N, 16 hours. As for the experimental part: Shh-EGFP cells were seeded into 12-well plate at a density of 120,000 cells/well in DMEM containing 10% calf serum. 100 U/mL penicillin, and 0.1 mg/mL streptomycin. After being cultured for 24 hours, the cells were transferred into DMEM containing 0.5% calf serum, 10% Shh-conditioned medium, the antibiotics described above, and either individual compounds or DMSO. The cells were cultured for an additional 16 hours, washed with PBS, and then lysed by incubation on ice with SDS-PAGE loading buffer composed of 8% glycerol, 20 mM Tris-HCl, pH 6.8, 2% SDS, 100 mM DTT, 1 mM PMSF, 20 mM NaF, 2 mM Na3VO4, and an EDTA-free protease inhibitor cocktail (Roche). The lysed samples were heated to 100° C. for 7 minutes, loaded onto 3-8% Criterion XT Tris-Acetate polyacrylamide gels (Bio-Rad), electrophoresed in XT Tricine buffer (Bio-Rad), and transferred onto PVDF membranes. The membranes were dehydrated with methanol and probed overnight at 4° C. with goat polyclonal anti-Gli3 antibody (0.4 μg/mL: R & D Systems, AF3690) in PBS containing 4% non-fat dry milk and 0.1% Tween-20 (immunoblot blocking buffer). The blots were then washed 4×1 minutes in PBS and incubated with horseradish peroxidase-conjugated bovine polyclonal anti-goat IgG antibody (0.04 μg/mL, Jackson ImmunoResearch, 805-035-180) in immunoblot blocking buffer for 1 hour at room temperature. The membranes were next washed 4×1 minutes in PBS and visualized using SuperSignal West Dura Extended Duration substrate (Thermo Scientific) and a ChemiDoc XRS imaging system (Bio-Rad). Band intensities of Gli3FL and Gli3R where quantified using Quantity One software (Bio-Rad), and five independent experiments were used to determine the average Gli3FL/Gli3R ratio for each compound.

In another assay the test system is basal cell carcinoma. The following applies: 33 human patients; cited from earlier work.
A further assay has as its system medulloblastoma. The following applies: human patient; cited from earlier work.

Bounds are passed on as bounds.

As for `Cc1cccc(C(=O)/C(C#N)=C2/NC(=O)c3ccccc3N2)c1` [Example 22], in assay [1], the IC50 is 5 µM.

On to `N#C/C(C(=O)c1ccc(Br)cc1)=C1\NC(=O)c2ccccc2N1` [Example 3], for which, in assay [1], the IC50 amounted to 5 µM.

As to `N#C/C(C(=O)c1ccc(Cl)cc1Cl)=C1\NC(=O)c2cc(Cl)ccc2N1` [Example 27, 2-(6-chloro-4-oxo-3,4-dihydroquinazolin-2(1H)-ylidene)-3-(2,4-dichlorophenyl)-3-oxopropanenitrile], in assay [2], the activity at 30 µM worked out at 11%. Besides, in assay [3], the Gli3FL/Gli3R ratio entry is reported as “altered the Gli3FL/Gli3R ratio” and the “Shh-N-dependent Gli3FL phosphorylation” value is listed as “reduced”. The 50% inhibitory concentration (IC50) in assay [1] came to 6.1 µM.

For the compound `CC(C)Cc1ccc(C(=O)/C(C#N)=C2/NC(=O)c3ccccc3N2)cc1` [Example 6], the IC50 in assay [1] is 6.5 µM.

`O=C(/C=C1/NC(=O)c2ccccc2N1)c1ccc(Cl)cc1Cl` [Example 23]: the activity at 30 µM in assay [2] was determined as 70%. Moreover, the IC50 in assay [1] was 4.4 µM.

As to `N#C/C(C(=O)c1ccc(Cl)c(Cl)c1)=C1\NC(=O)c2ccccc2N1` [Example 18], the activity at 30 µM in assay [2] worked out at 16%. Further, in assay [1], the IC50 worked out at 3 µM.

On to `COc1ccc(C(=O)/C(C#N)=C2/NC(=O)c3ccccc3N2)cc1` [Example 8], for which the IC50 in assay [1] was 30 µM.

Take `N#C/C(C(=O)c1ccc(Cl)cc1Cl)=C1\NC(=O)c2c(Cl)cccc2N1` [Example 25, 2-(5-chloro-4-oxo-3,4-dihydroquinazolin-2(1H)-ylidene)-3-(2,4-dichlorophenyl)-3-oxo-propanenitrile]: in assay [2], the activity at 30 µM is 32%. In addition, in assay [3], the Gli3FL/Gli3R ratio entry is “altered the Gli3FL/Gli3R ratio” and the “Shh-N-dependent Gli3FL phosphorylation” value was “reduced”. Further, the IC50 in assay [1] came to 11 µM.

With `Cc1cccc2c1C(=O)N/C(=C(\C#N)C(=O)c1ccc(Cl)cc1Cl)N2` [Example 26], in assay [1], the IC50 came to 10 µM.

As to `CS(=O)(=O)c1ccc(C(=O)Nc2ccc(Cl)c(-c3ccccn3)c2)c(Cl)c1` [GDC-0449], the “tumor response, basal cell carcinoma” value with basal cell carcinoma is “clinically significant response”. The “tumor response, medulloblastoma” value in the assay on medulloblastoma is “regression of medulloblastoma”.

Regarding `N#C/C(C(=O)c1cc(Cl)cc(Cl)c1)=C1\NC(=O)c2ccccc2N1` [Example 19], the activity at 30 µM in assay [2] turned out to be 65%. For the same compound, the IC50 in assay [1] amounted to 3 µM.

Turning to `N#C/C(C(=O)c1ccccc1F)=C1\NC(=O)c2ccccc2N1` [Example 11], the IC50 in assay [1] was 30 µM.

For the compound `COc1ccc2c(c1)N/C(=C(/C#N)C(=O)c1ccc(Cl)cc1Cl)NC2=O` [Example 33], in assay [1], the IC50 was 15 µM.

As for `N#C/C(=C\c1ccc(Cl)cc1Cl)C1NC(=O)c2ccccc2N1` (stereo not drawn) [Example 24], the activity at 30 µM in assay [2] is 104%. The IC50 in assay [1] was over 50 µM.

On to `COc1cc(C(=O)/C(C#N)=C2/NC(=O)c3ccccc3N2)cc(OC)c1OC` [Example 20], for which, in assay [1], the IC50 is over 30 µM.

On to `N#C/C(C(=O)c1ccccc1I)=C1\NC(=O)c2ccccc2N1` [Example 13], for which the IC50 in assay [1] came to 20 µM.

In the case of `N#C/C(C(=O)c1ccc([N+](=O)[O-])cc1)=C1\NC(=O)c2ccccc2N1` [Example 9], the IC50 in assay [1] was 25 µM.

As to `N#C/C(C(=O)c1ccc(Cl)cc1Cl)=C1\NC(=O)c2cc(I)ccc2N1` [Example 28], the IC50 in assay [1] came out at 6 µM.

`N#C/C(C(=O)c1ccc(Cl)cc1Cl)=C1\NC(=O)c2cc(C#CCN)ccc2N1` [Example 29]: in assay [1], the half-maximal inhibitory concentration (IC50) turned out to be 20 µM.

As for `Cc1ccccc1C(=O)/C(C#N)=C1/NC(=O)c2ccccc2N1` [Example 14], the IC50 in assay [1] is 30 µM.

Turning to `N#C/C(C(=O)c1ccccc1Cl)=C1\NC(=O)c2ccccc2N1` [Example 10, 3-(2-chlorophenyl)-3-oxo-2-(4-oxo-3,4-dihydroquinazolin-2(1H)-ylidene)propanenitrile], the activity at 30 µM in assay [2] stood at 93%. The IC50 in assay [1] amounted to 25 µM.

`N#C/C(C(=O)c1ccccc1Br)=C1\NC(=O)c2ccccc2N1` [Example 12]: the IC50 in assay [1] was found to be 15 µM.

Take `N#C/C(C(=O)c1ccc(Cl)cc1Cl)=C1\NC(=O)c2ccc(I)cc2N1` [Example 32]: the IC50 in assay [1] came to 12 µM.

`COc1ccccc1C(=O)/C(C#N)=C1/NC(=O)c2ccccc2N1` [Example 15]: in assay [1], the IC50 is over 30 µM.

Regarding `Cc1ccc(C(=O)/C(C#N)=C2/NC(=O)c3ccccc3N2)cc1` [Example 5], the IC50 in assay [1] was 15 µM.

`N#C/C(C(=O)c1cccc2ccccc12)=C1\NC(=O)c2ccccc2N1` [Example 21]: the IC50 in assay [1] was 20 µM.

Take `N#C/C(C(=O)c1cccc(Cl)c1)=C1\NC(=O)c2ccccc2N1` [Example 17, 3-(3-chlorophenyl)-3-oxo-2-(4-oxo-3,4-dihydroquinazolin-2 (1H)-ylidene)propanenitrile]: the activity at 30 µM in assay [2] is 68%. For the same compound, in assay [1], the IC50 came to 5.5 µM.

As for `CC(=O)NCC#Cc1ccc2c(c1)C(=O)N/C(=C(\C#N)C(=O)c1ccc(Cl)cc1Cl)N2` [Example 30], the IC50 in assay [1] came out at 30 µM.

In the case of `N#C/C(C(=O)c1ccc(I)cc1)=C1\NC(=O)c2ccccc2N1` [Example 4], the IC50 in assay [1] turned out to be 4.5 µM.

Broadly, the IC50 is the point on the concentration scale where inhibition reaches its midpoint.
